In US20070254055A1, “Therapeutic Avenanthramide Compounds” (TRUSTEES OF TUFTS COLLEGE, priority 2003, published 2007):

Experiments:
p27Kip1 = p27Kip1 expression Western blot, A10 cells; type: cell-based, rat; settings: 10% FBS, 20 h
Experimental: (§1) Protein from 5×10^4 cells was subjected to electrophoresis on 7.5-10% SDS-polyacrylamide gels and electro-transferred to nirocellulose membrane. Nonspecific binding was blocked by incubating with Tris-buffered saline (TBS) [137 mM NaCl, and 15 mM Tris-HCl (pH 7.6)] containing 5% non-fat milk (w/v) for 1 h at room temperature and then probed with primary antibody against p53, p21, p27, cyclin D1 and pRb overnight. After washing in TBS-Tween 20 buffer (0.075% v/v), the membranes were incubated with horseradish peroxidase-conjugated anti-IgG antibody. Proteins bound to the primary antibodies were detected with ECL detection reagents.
Cyclin-dependent kinase (cdk) inhibitors play important roles in cell cycle progression. P21cip1 is the main target of p53 medicated cell cycle inhibition. […] The effect of Avn on this CDK inhibitor p21cip1 protein expression was determined by Western blotting. A10 cells were synchronized by growning in FBS-free medium for 24 h. The cells were then stimulated with 10% FBS in the absence or presence of different concentrations of substantially purified Avn-C. After 20 h, total cell lysates were prepared and subjected to SDS-PAGE followed by Western blot analysis to detect p21cip and p27kip. β-Actin expression was used as loading control. […]

[1] = tested on: human aortic smooth muscle cells (HSMC); assay: FBS-induced [3H] thymidine incorporation in HSMC; type: cell-based
Description: Synthetic Av-C was used in this experiment. […] The inhibitory effect of Avenanthramide was concentration-dependent.

p53 = assay: Half life of p53 protein, cycloheximide chase, A10 cells; type: cell-based, rat
Experimental: At 80% confluence, A10 cells seeded into 100 mm culture dishes and were treated with different concentrations of Av (0, 40, 80 and 120 μM) for 24 h. Following Avn treatment, the total cell extracts were harvested with 2× protein sample buffer [0.14 M Tris/HCl (pH 6.8), 22.4% glycerol, 6% SDS, 0.02% […], and 10% β-mercaptoethanol] by scraping the cells. The genomic DNA is sheared by passing through a 21-gauge syringe several times. The homogenized cell lysates were boiled for 5 min and centriftiged at 12,000 rpm for 5 min. Protein half life studies are performed as described before. Briefly, cells were treated with Avn for 4-6 h. […] Cells were harvested in 2× protein sample buffer at 0, 30, 60 and 120 min after cycloheximide addition. Protein samples were analyzed by Western blot.
P53 protein level is mainly regulated at a posttranslational level, usually via control of protein stability. To determine whether increased protein stability might play a role in the increased p53 levels induced by Avn treatment observed in this study, the change in half life of p53 protein in Avn-treated and nontreated cells was explored. […] Whole cell extract was prepared at different time points (0, 30 and 60 min.) and p53 protein levels were measured by Western blot. […]

eNOS mRNA = eNOS mRNA expression level by real time PCR; type: cell-based, human
Experimental: Since NO is catalyzed by endothelium nitric oxide synthases (eNOS), the role of Avenanthramide in induction of eNOS expression level by real time PCR was examined. Total mRNA was extracted using RNesy Mini Kit (QIAGEN) and quantified spectrophotometrically at 260 nm. Twenty μl of first-strand cDNA was synthesized from 1.5 μg of total RNA by using 300 ng of random hexanucleotide primers and 200u of SuperScript II (Invitrogen) at 42 C. for 1 h followed by heat inactivation of reverse transcriptase at 70 C. for 15 min. Fifty μL of PCR reaction mixture contained 5 μL cDNA, up- and down-stream primers (200 nM) and 25 μL of SYBR Green was set up into the ABI 4400 to perform the amplification for 40 cycles with denaturation at 95 C. for 30 sec, annealing at 60 C. for 1 min and extension at 72 C. for 1 min. Primers designed based on the published gene sequences were synthesized from Tufts University Core Facility. The primer sequences used for eNOS were:
Beta-actin mRNA expression level as an internal control. […] The enhancing effect is dose-dependent and the pattern is consistent with the results from NO production (FIG. 3).

[2] = tested on: A10 cells (rat embryonic aortic smooth muscle cell); assay: Cell number counting, A10 cells; type: cell-based
Experimental: HSMC or A10 cells (rat embryonic aortic smooth muscle cell) were seeded into 6-well plate at a density of 0.5×10^4/well. Four hr later 120 μM of avenanthramide were added to each well. At different time points (2d, 3d and 4d) the cells were trypsinzied and the total cell number were counted using a hemocytometer. Trypan blue exclusion test was carried out to determine the cell viability.

cyclin D1 = assay: Cyclin D1 expression Western blot, FBS-stimulated A10 cells; type: cell-based, rat; settings: 10% FBS, 20 h, dose-dependent
Experimental: as §1
Cells were treated with 10% FBS in the presence and absence of substantially purified Avn-C as described above. 20 h after the addition of serum to quiescent A10 cells, the amount of cyclin D1 was measured by Western blotting using polyclonal anti-cyclin D1 antibody. β-Actin expression level was used as a loading control.

VCAM-1 = assay: HASMC expression of VCAM-1; type: cell-based, human

## O=C(/C=C/c1ccc(O)c(O)c1)Nc1ccc(O)cc1C(=O)O [Avn-C, Avenanthramide C]
p27Kip1
  p27Kip1 protein expression: no significant effect
[1]; 120 μM, 10% FBS, 24 h
  inhibition of cell proliferation (serum-induced DNA synthesis): more than 50%
[1]; [3H] thymidine incorporation and cell number counting, read-out: IC50, serum-induced HASMC proliferation
  IC50: ~50 µM
p53; 80 uM for 6 h, then 15 μg/mL cycloheximide
  p53 protein remaining after 1 h of cycloheximide treatment: More than half
p53; A10 cells (untreated about 20 min)
  half-life of p53: more than 1 h
eNOS mRNA; 80 μM, HASMC
  increase of eNOS mRNA expression level: 3.5 fold
eNOS mRNA; Av. Con. 40 μM
  Fold Change, eNOS mRNA expression level: 1.56
  ΔCt eNOS-β-actin: 7.0 ± 0.51
eNOS mRNA; Av. Con. 80 μM
  Fold Change, eNOS mRNA expression level: 2.39
  ΔCt eNOS-β-actin: 6.41 ± 0.48
[2]; 120 μM
  reduction in cell proliferation: 50%
[2]; A10, 120 μM
  doubling time: more than 48 hr
Cyclin D1
  FBS-induced cyclin D expression: attenuate
VCAM-1
  HASMC expression of VCAM-1: not affected
